# Reference: paper PMC4624771, “Oriented Cell Division in the C. elegans Embryo Is Coordinated by G-Protein Signaling Dependent on the Adhesion GPCR LAT-1” (PLoS Genetics, 2015)
# T1: C. elegans latrophilin homolog LAT-1 (C. elegans) (UniProt G5EDW2)
# T1 sequence: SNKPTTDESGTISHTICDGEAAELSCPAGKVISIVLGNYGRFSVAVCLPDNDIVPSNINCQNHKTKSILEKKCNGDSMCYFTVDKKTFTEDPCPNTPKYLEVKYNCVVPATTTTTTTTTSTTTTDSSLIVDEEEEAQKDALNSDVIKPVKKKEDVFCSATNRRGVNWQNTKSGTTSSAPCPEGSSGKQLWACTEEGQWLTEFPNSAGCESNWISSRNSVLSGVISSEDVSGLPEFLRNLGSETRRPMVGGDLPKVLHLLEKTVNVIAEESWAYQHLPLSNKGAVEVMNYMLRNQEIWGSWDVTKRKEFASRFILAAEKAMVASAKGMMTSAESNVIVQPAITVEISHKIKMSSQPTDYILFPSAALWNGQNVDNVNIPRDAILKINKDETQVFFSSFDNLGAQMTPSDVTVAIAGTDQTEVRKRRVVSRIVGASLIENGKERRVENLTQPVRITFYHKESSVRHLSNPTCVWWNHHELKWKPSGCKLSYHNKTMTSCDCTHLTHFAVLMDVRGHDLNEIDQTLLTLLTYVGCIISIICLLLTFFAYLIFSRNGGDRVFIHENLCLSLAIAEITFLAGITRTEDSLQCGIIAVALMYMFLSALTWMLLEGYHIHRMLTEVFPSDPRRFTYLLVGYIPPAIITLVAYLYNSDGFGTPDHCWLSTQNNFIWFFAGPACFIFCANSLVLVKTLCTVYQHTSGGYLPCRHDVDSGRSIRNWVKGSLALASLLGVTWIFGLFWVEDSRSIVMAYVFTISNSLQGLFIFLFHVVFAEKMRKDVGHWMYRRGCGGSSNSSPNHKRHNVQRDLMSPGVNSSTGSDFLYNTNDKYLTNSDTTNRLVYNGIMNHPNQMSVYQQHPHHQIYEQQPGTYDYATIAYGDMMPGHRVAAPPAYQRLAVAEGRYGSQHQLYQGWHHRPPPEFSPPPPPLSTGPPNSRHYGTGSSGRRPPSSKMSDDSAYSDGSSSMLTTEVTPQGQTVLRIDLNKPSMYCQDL
# What was measured:
# [1] = molecular target: rat latrophilin LPHN1 (ADGRL1) (rat) (UniProt O88917)
# lat-1(ok1465) nematodes = assay: Lethality rescue assay in lat-1 mutant nematodes; assay type: in vivo
# From the text: Fig 2 Division plane defects in lat-1 mutant embryos are rescued by elevation of intracellular cAMP via a Gs protein/adenylyl cyclase pathway. […] In wild-type embryos treated with the RNAi control vector L4440 ABal divides in an anterior-posterior direction (A) whereas in treated lat-1 mutants the division plane is almost perpendicular to MS (B). gsa-1 RNAi by feeding over two generations leads to a turning of the F2 ABal division plane in a direction similar to that in lat-1 mutants (C). F2 lat-1; gsa-1(RNAi) embryos show a similar ABal division plane to lat-1 mutants (D). (E) Cell division plane angles of ABal relative to MS after knockdown of gsa-1. […] The vector L4440 served as negative control. Data are shown as means ± SD. * p < 0.05; *** p < 0.001; n ≥ 11. (F) cAMP levels are reduced in lat-1 embryos compared to a control wild-type population. cAMP levels were measured after lysis (15 μg protein) by cAMP accumulation assay. Assays were performed in three independent experiments, data are given as means ± SD. ** p < 0.01. (G) Rescue of developmental lethality in lat-1 nematodes treated with compounds promoting cAMP accumulation: forskolin (80 μM), IBMX (10 mM) and 8-Br-cAMP (0.25 mM). Mothers and subsequently offspring of wild-type and lat-1 individuals were incubated and individuals reaching adulthood were scored (n = 410). As controls, nematodes were incubated in solvent without drug (mock). Data are shown as means ± SD. * p < 0.05; ** p < 0.01; *** p < 0.001. (H) Forskolin increases cAMP levels in C. elegans embryos and adults. lat-1 mutants and subsequently embryos were incubated with 80 μM forskolin. […] As controls, nematodes were treated with 0.8% DMSO lacking forskolin (mock). Basal cAMP levels of mock control are: 0.70 ± 0.14 nM (wild-type embryos); 0.37 ± 0.19 nM (lat-1 embryos); 1.9 ± 0.7 nM (wild-type adults); 2.3 ± 0.8 nM (lat-1 adults). Assays were performed in three independent experiments, data are given as means ± SD. * p < 0.05; ** p < 0.01; *** p < 0.001. (I-L) Relative positions of ABala, ABalp, and MS in an AB^4 embryo. Schematic representation (top) and DIC microscopy (bottom), scale bars = 10 μm. In wild-type embryos (I) and embryos incubated in 80 μM forskolin for 120 minutes (K) ABal divides in an anterior-posterior direction with only ABalp forming an interface with MS. In lat-1 mutants the division plane is skewed resulting in ABala and ABalp contacting MS (J). lat-1 embryos treated with 80 μM forskolin for 120 minutes display wild-type division and cell interfaces (L). (M) Arrangement of blastomeres in the 12-cell stage embryo. […] The right-hand side is two views of the mean positions of the blastomeres. The spheres are enlarged to convey an impression of the contacts. Forskolin turns the ABal spindle in the mutant in a more anterior direction. (N) Cell division plane angles of ABal relative to MS of untreated wild-type/lat-1 controls and wild-type/lat-1 embryos after incubation of mothers and subsequently embryos for 48 hours in 80 μM forskolin. Upon forskolin treatment, mutant embryos display a wild-type division angle. As controls, nematodes were treated with 0.8% DMSO lacking forskolin (mock). Data are shown as average angles ± SD, *** p < 0.001; n ≥ 12. (O) Forskolin reduces the contact length of ABala to MS. Ratio of relative contact lengths of ABala to MS and ABalp to MS cells lat-1 embryos untreated (control, n = 10) and after incubation of mothers and subsequently embryos for 48 hours in 80 μM forskolin (n = 11). […] Data were calculated from pixel analyses utilizing DIC images and are shown as means ± SD, ** p < 0.01.
# All compounds were obtained from Sigma Aldrich. Forskolin was dissolved in DMSO to 10 mM, 3-isobutyl-1-methylxanthine (IBMX) in Dent´s buffer to 10 mM, 8-bromoadenosine 3′,5′-cyclic monophosphate (8-Br-cAMP) in 1 N ammonium hydroxide to 250 mM and 2',5'-dideoxyadenosine (ddA) was diluted in DMSO to 100 mM prior to final dilution in Dent´s buffer. […]
# [2] = tested on: cAMP levels in C. elegans embryos and adults; assay: In vivo cAMP measurement in C. elegans embryos and adults; details: cAMP accumulation assay after lysis
# From the text: (§1) Fig 2 Division plane defects in lat-1 mutant embryos are rescued by elevation of intracellular cAMP via a Gs protein/adenylyl cyclase pathway. […] In wild-type embryos treated with the RNAi control vector L4440 ABal divides in an anterior-posterior direction (A) whereas in treated lat-1 mutants the division plane is almost perpendicular to MS (B). gsa-1 RNAi by feeding over two generations leads to a turning of the F2 ABal division plane in a direction similar to that in lat-1 mutants (C). F2 lat-1; gsa-1(RNAi) embryos show a similar ABal division plane to lat-1 mutants (D). (E) Cell division plane angles of ABal relative to MS after knockdown of gsa-1. […] The vector L4440 served as negative control. Data are shown as means ± SD. * p < 0.05; *** p < 0.001; n ≥ 11. (F) cAMP levels are reduced in lat-1 embryos compared to a control wild-type population. cAMP levels were measured after lysis (15 μg protein) by cAMP accumulation assay. Assays were performed in three independent experiments, data are given as means ± SD. ** p < 0.01. […] Mothers and subsequently offspring of wild-type and lat-1 individuals were incubated and individuals reaching adulthood were scored (n = 410). […] Data were calculated from pixel analyses utilizing DIC images and are shown as means ± SD, ** p < 0.01. […]
# C. elegans embryos = assay: Contact length ratio of ABala-MS to ABalp-MS in embryos; assay type: in vivo; details: n = 11
# From the text: as §1
# lat-1 mutants = assay: Fertility rescue assay (brood size); assay type: in vivo, C. elegans; details: 80 μM forskolin, independently of time and duration of drug application
# Procedure: Supplementary file pgen.1005624.s004.tif: S3 Fig A cAMP-mediated signal is involved in the role of LAT-1 in cleavage plane orientation but not in fertility. (A) Fertility defects of lat-1 mutants are not rescued by treatment of hermaphrodites from embryonic stages to adulthood with 80 μM forskolin. Brood size was scored compared to untreated (mock), DMSO-treated (0.8%) and wild-type control. Data are given as means ± SD, n.s. not significant. […] (TIF) Click here for additional data file.
# Ten L4 hermaphrodites were allowed to lay eggs on separate NGM plates containing 80 µM forskolin or respective solvent and seeded with OP50. Plates were incubated at 22 °C. Every 24 hours hermaphrodites were transferred onto fresh plates until egg-laying ceased and embryos were scored. Experiments were conducted at least in triplicate. Data were examined with an unpaired two-tailed t test for each genotype and condition, means are presented with SD.
# wild-type embryos = assay: Embryonic lethality after adenylyl cyclase inhibition, wild-type; assay type: in vivo, C. elegans; details: adult hermaphrodites and subsequently very early embryos, 1 mM ddA vs 1% DMSO mock; n > 520
# Procedure: (§2) All compounds were obtained from Sigma Aldrich. Forskolin was dissolved in DMSO to 10 mM, 3-isobutyl-1-methylxanthine (IBMX) in Dent´s buffer to 10 mM, 8-bromoadenosine 3′,5′-cyclic monophosphate (8-Br-cAMP) in 1 N ammonium hydroxide to 250 mM and 2',5'-dideoxyadenosine (ddA) was diluted in DMSO to 100 mM prior to final dilution in Dent´s buffer. Peptides were synthesized (see Supporting Experimental Procedures) and dissolved in DMSO to 100 mM prior to final dilution in M9. Worms were incubated in 80 μM forskolin, 10 mM IBMX, 0.25 mM 8-Br-cAMP, 1 mM ddA or 0.1 mM peptide solution, respectively, containing E. coli OP50.
# (§3) Supplementary file pgen.1005624.s005.tif: S4 Fig Inhibition of adenylyl cyclases in wild-type hermaphrodites partially mimics the lat-1 phenotype. […] Note that this effect might be not fully penetrant due potential difficulties in drug accessibility. As controls, nematodes were treated with 1% DMSO lacking ddA (mock). Individuals surviving embryogenesis were scored (n > 520). Data are given as means ± SD. n.s. not significant; *** p < 0.001. (TIF) Click here for additional data file.
# lat-1 mutant embryos = assay: Embryonic lethality after adenylyl cyclase inhibition, lat-1 mutants; assay type: in vivo, C. elegans; details: 1 mM ddA vs 1% DMSO mock; n > 520
# Procedure: as §2, §3
# [3] = molecular target: T1, C. elegans latrophilin homolog LAT-1 (C. elegans)
# Chain of UniProt O88917 (O88917 25-1515): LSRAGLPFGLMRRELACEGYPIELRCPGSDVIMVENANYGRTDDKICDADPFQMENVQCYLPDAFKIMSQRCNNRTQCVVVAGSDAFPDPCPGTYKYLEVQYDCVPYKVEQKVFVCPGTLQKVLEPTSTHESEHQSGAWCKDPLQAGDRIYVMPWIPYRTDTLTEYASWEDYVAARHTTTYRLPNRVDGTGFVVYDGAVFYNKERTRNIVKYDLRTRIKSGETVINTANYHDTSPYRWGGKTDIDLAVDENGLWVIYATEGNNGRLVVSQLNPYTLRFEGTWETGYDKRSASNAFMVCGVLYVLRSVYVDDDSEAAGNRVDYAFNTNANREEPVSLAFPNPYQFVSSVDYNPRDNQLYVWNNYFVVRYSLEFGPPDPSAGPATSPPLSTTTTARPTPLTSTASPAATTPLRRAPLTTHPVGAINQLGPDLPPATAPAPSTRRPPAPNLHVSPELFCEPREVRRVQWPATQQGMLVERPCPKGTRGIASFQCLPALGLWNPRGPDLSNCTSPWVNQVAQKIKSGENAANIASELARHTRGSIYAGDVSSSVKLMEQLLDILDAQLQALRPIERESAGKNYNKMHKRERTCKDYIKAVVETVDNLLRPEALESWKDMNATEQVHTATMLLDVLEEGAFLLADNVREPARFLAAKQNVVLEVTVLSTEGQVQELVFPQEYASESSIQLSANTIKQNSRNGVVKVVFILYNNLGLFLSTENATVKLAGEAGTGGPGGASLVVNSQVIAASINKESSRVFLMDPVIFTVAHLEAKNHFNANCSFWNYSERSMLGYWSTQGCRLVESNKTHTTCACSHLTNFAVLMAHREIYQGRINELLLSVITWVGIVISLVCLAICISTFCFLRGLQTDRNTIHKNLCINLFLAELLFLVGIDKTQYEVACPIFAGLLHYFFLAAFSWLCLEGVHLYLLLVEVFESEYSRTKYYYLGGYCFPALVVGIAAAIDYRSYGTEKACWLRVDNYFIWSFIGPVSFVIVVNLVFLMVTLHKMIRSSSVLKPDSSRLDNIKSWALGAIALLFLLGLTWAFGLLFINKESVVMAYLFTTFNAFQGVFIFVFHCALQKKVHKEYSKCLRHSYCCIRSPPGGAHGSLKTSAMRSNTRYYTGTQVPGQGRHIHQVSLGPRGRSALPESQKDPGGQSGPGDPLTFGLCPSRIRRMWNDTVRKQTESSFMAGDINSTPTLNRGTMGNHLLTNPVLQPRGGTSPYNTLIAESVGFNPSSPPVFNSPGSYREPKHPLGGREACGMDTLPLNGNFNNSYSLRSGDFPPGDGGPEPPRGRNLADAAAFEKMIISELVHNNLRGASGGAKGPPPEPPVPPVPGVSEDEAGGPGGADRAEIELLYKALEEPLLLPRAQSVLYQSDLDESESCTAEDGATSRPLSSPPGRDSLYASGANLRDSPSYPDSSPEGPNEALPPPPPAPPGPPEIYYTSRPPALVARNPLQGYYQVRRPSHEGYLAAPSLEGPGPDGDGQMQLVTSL
molecule,measurement,setting,value
"RP13, peptide of 13 amino acids C-terminal of the rat LPHN1 GPS cleavage site","cAMP accumulation (ALPHAScreen) in COS-7 cells transfected with rat LPHN1 and stimulated with 1 mM peptide, fold over basal",[1],2.3 fold
C=C[C@@]1(C)CC(=O)[C@]2(O)[C@@]3(C)[C@@H](O)CCC(C)(C)[C@@H]3[C@H](O)[C@H](OC(C)=O)[C@@]2(C)O1 [forskolin],"effect on embryonic lethality of lat-1 worms, in words","lat-1(ok1465) nematodes; L4 larvae and subsequently embryos incubated, forskolin 80 μM, IBMX 10 mM, 8-Br-cAMP 0.25 mM",amelioration of embryonic lethality
same,"time point of drug application needed for rescue of developmental lethality, in words","lat-1(ok1465) nematodes; lat-1 mutants, 80 μM forskolin",only when adding forskolin to the mother or the very early embryonic stages
same,survival rate (individuals reaching adulthood),"lat-1(ok1465) nematodes; lat-1 worms, mothers (L4) and subsequently offspring incubated in 80 μM forskolin, untreated 33%",73%
same,"effect of concentrations higher than 80 μM on C. elegans, in words",lat-1(ok1465) nematodes; various concentrations tested,higher concentrations were detrimental
same,concentration with optimal effect,lat-1(ok1465) nematodes; various concentrations tested on C. elegans,80 µM
same,"cAMP levels in embryos, in words",[2]; lat-1 mutants and subsequently embryos incubated with 80 μM forskolin vs 0.8% DMSO mock,increase in cAMP levels
same,"cAMP in hermaphrodites, in words","[2]; wild-type and lat-1 hermaphrodites (L4 stage), 80 μM forskolin 48 hours vs 0.8% DMSO mock",elevated cAMP
same,"contact of ABala to MS in wild-type embryos, in words","C. elegans embryos; forskolin-treated wild-type embryos, 80 μM",does not contact MS
same,"contact of ABala to MS in lat-1 embryos, in words","C. elegans embryos; lat-1 embryos, mothers and subsequently embryos 48 hours in 80 μM forskolin, untreated ratio 0.72 ± 0.03",strongly reduced
same,"rescue of reduced brood size of lat-1 mutants, in words",lat-1 mutants,did not detect any rescue
"C[C@H]1O[C@@H](n2cnc3c(N)ncnc32)C[C@@H]1O [ddA, 2',5'-dideoxyadenosine]","embryonic lethality in wild-type, in words",wild-type embryos,specific embryonic lethality
same,"embryonic lethality in lat-1 mutant embryos, in words",lat-1 mutant embryos,not in lat-1 mutant embryos
"THFAVLMDVRGH [CP12, peptide of 12 amino acids C-terminal of the LAT-1 GPS cleavage site]","cAMP accumulation (ALPHAScreen) in lat-1-transfected COS-7 cells stimulated with 1 mM peptide, fold over basal",[3],1.6 fold
